pIC50: −log10 of the molar value. In brackets after ≈: the same amount, converted by molar mass.
Assays:
[1] = Selectivity index, ratio of CC50 for monkey LLC-MK2 cells to IC50 for Trypanosoma cruzi Y strain bloodstream trypomastigotes; assay type: toxicity; conditions: read-out: Ratio IC50
[2] = tested on: Trypanosoma cruzi; assay: Trypanocidal activity against Trypanosoma cruzi Y strain bloodstream trypomastigotes isolated from infected Swiss mouse infected with monkey LLC-MK2 cells after 5 days by fluorescence spectrophotometric analysis; assay type: functional, organism-based; conditions: LLC-MK2, 120 h
[3] = tested on: Trypanosoma cruzi; assay: Anti-parasitic activity against amastigote form of Trypanosoma cruzi after 24 hrs; assay type: functional, organism-based
[4] = tested on: L02; assay: Cytotoxicity against human LO2 cells assessed as reduction in cell viability after 48 hrs by MTT assay; assay type: functional, cell-based; conditions: L02, 48 h
[5] = tested on: HepG2; assay: Cytotoxicity against human HepG2 cells assessed as reduction in cell viability after 48 hrs by MTT assay; assay type: functional, cell-based; conditions: HepG2, 48 h
[6] = tested on: MOLT-4; assay: Anticancer activity against human MOLT4 cells; assay type: functional, cell-based
[7] = tested on: MDA-MB-435; assay: Anticancer activity against human MDA-MB-435 cells; assay type: functional, cell-based
[8] = tested on: SF-295; assay: Anticancer activity against human SF295 cells; assay type: functional, cell-based
[9] = tested on: Jurkat; assay: Anticancer activity against human Jurkat cells; assay type: functional, cell-based
[10] = tested on: HL-60; assay: Anticancer activity against human HL60 cells; assay type: functional, cell-based
[11] = tested on: UACC-62; assay: Anticancer activity against human UACC62 cells; assay type: functional, cell-based
[12] = tested on: HCT-116; assay: Anticancer activity against human HCT116 cells; assay type: functional, cell-based
[13] = tested on: SF-268; assay: Anticancer activity against human SF268 cells; assay type: functional, cell-based
[14] = tested on: SW-620; assay: Anticancer activity against human SW620 cells; assay type: functional, cell-based
[15] = tested on: HCT-8; assay: Anticancer activity against human HCT8 cells; assay type: functional, cell-based
[16] = tested on: Hs-578T; assay: Anticancer activity against human Hs578T cells; assay type: functional, cell-based
[17] = tested on: PBMC; assay: Cytotoxicity against human PBMC; assay type: cell-based
[18] = tested on: NCI-H460; assay: Anticancer activity against human NCI-H460 cells; assay type: functional, cell-based
[19] = tested on: K562; assay: Anticancer activity against human K562 cells; assay type: functional, cell-based
[20] = tested on: PC-3; assay: Anticancer activity against human PC3 cells; assay type: functional, cell-based
[21] = tested on: MX1; assay: Anticancer activity against human MX1 cells; assay type: functional, cell-based
[22] = tested on: DU-145; assay: Anticancer activity against human DU145 cells; assay type: functional, cell-based
[23] = tested on: MDA-MB-231; assay: Anticancer activity against human MDA-MB-231 cells; assay type: functional, cell-based
[24] = tested on: LNCaP; assay: Anticancer activity against human LNCAP cells after 72 to 102 hrs by MTT assay; assay type: functional, cell-based
[25] = tested on: PC-3; assay: Anticancer activity against human PC3 cells after 72 to 102 hrs by MTT assay; assay type: functional, cell-based
[26] = tested on: Trypanosoma cruzi; assay: Anti-parasitic activity against epimastigotes form of Trypanosoma cruzi; assay type: functional, organism-based
[27] = tested on: MCF7; assay: Anticancer activity against human MCF7 cells; assay type: functional, cell-based
[28] = tested on: Hs-578T; assay: Cytotoxicity against human Hs 578T cells assessed as reduction in cell viability after 72 hrs by MTT assay; assay type: functional, cell-based
[29] = tested on: SF-295; assay: Cytotoxicity against human SF295 cells assessed as reduction in cell viability after 72 hrs by MTT assay; assay type: functional, cell-based; conditions: SF-295, 72 h
[30] = tested on: MDA-MB-435; assay: Cytotoxicity against human MDA-MB-435 cells assessed as reduction in cell viability after 72 hrs by MTT assay; assay type: functional, cell-based; conditions: MDA-MB-435, 72 h
[31] = tested on: SW-620; assay: Cytotoxicity against human SW620 cells assessed as reduction in cell viability after 72 hrs by MTT assay; assay type: functional, cell-based; conditions: SW-620, 72 h
[32] = tested on: Hs-578T; assay: Cytotoxicity against human Hs578T cells assessed as reduction in cell viability after 72 hrs by MTT assay; assay type: functional, cell-based
[33] = tested on: NCI-H358; assay: Cytotoxicity against human NCI-H358 cells assessed as reduction in cell viability after 72 hrs by MTT assay; assay type: functional, cell-based; conditions: NCI-H358, 72 h
[34] = tested on: HL-60; assay: Cytotoxicity against human HL60 cells assessed as reduction in cell viability after 72 hrs by MTT assay; assay type: functional, cell-based; conditions: HL-60, 72 h
[35] = tested on: HCT-8; assay: Cytotoxicity against human HCT8 cells assessed as reduction in cell viability after 72 hrs by MTT assay; assay type: functional, cell-based; conditions: HCT-8, 72 h
[36] = tested on: Trypanosoma cruzi; assay: Anti-parasitic activity against trypomastigotes form of Trypanosoma cruzi after 24 hrs; assay type: functional, organism-based
[37] = tested on: HL-60; assay: Anticancer activity against human HL60 cells by MTT assay; assay type: functional, cell-based
[38] = tested on: OVCAR-8; assay: Anticancer activity against human OVCAR8 cells by MTT assay; assay type: functional, cell-based
[39] = tested on: HCT-116; assay: Anticancer activity against human HCT116 cells by MTT assay; assay type: functional, cell-based
[40] = tested on: SF-295; assay: Anticancer activity against human SF295 cells by MTT assay; assay type: functional, cell-based
[41] = tested on: Trypanosoma cruzi; assay: Potency index, ratio of beta-lapachone IC50 to compound IC50 for Trypanosoma cruzi after 24 hrs; assay type: functional, organism-based
[42] = tested on: Trypanosoma cruzi; assay: Trypanocidal activity against Trypanosoma cruzi Y strain bloodstream trypomastigotes after 24 hrs; assay type: functional, organism-based
[43] = tested on: Mycobacterium tuberculosis; assay: Antimycobacterial activity against Mycobacterium tuberculosis H37Rv; assay type: functional

## CCCCCCCCCCC1CC2=C(O1)c1ccccc1C(=O)C2=O (centres undefined)
[1]
  selectivity ratio: 36.3
[2]
  pIC50: 4.33

## CC1(C)Cc2c(c3ccccc3c3nc4c5cccnc5c5ncccc5c4nc23)O1
[3]
  pIC50: 4.64

## O=C1C(=O)c2ccccc2C2=C1C1(C(=O)Nc3cc(Br)ccc31)N1NN=NC1=N2 (centres undefined)
[4]
  pIC50: 4.44 to 5.54
[5]
  pIC50: 4.44 to 5.54

## Nc1nnn[nH]1
[4]
  pIC50: 4.44 to 5.54
[5]
  pIC50: 4.44 to 5.54

## CC1(C)CCc2c(c3ccccc3c3nc4c5cccnc5c5ncccc5c4nc23)O1
[3]
  pIC50: 5.31

## O=C1C(=O)c2ccccc2C2=C1C1(C(=O)Nc3c(C(F)(F)F)cccc31)N1NN=NC1=N2 (centres undefined)
[4]
  pIC50: 4.44 to 5.54
[5]
  pIC50: 4.44 to 5.54

## COc1ccc2c(c1)NC(=O)C21C2=C(N=C3N=NNN31)c1ccccc1C(=O)C2=O (centres undefined)
[4]
  pIC50: 4.44 to 5.54
[5]
  pIC50: 4.44 to 5.54

## Cc1cc(C)n2c1C(c1ccc(OCc3cn(C4C5=C(OC4(C)C)c4ccccc4C(=O)C5=O)nn3)cc1)=C1C=CC=[N+]1[B-]2(F)F (centres undefined)
[6]
  pIC50: 5.66 to 6.47
[7]
  pIC50: 5.66 to 6.47
[8]
  pIC50: 5.66 to 6.47
[9]
  pIC50: 5.66 to 6.47
[10]
  pIC50: 5.66 to 6.47
[11]
  pIC50: 5.66 to 6.47
[12]
  pIC50: 5.66 to 6.47
[13]
  pIC50: 5.66 to 6.47
[14]
  pIC50: 5.66 to 6.47
[15]
  pIC50: 5.66 to 6.47
[16]
  pIC50: 5.66 to 6.47
[17]
  pIC50: 5.49
[18]
  pIC50: 5.66 to 6.47
[19]
  pIC50: 5.66 to 6.47
[20]
  pIC50: 5.66 to 6.47
[21]
  pIC50: 5.66 to 6.47
[22]
  pIC50: 5.66 to 6.47
[23]
  pIC50: 5.66 to 6.47

## O=C1C(=O)c2ccccc2C2=C1C1(C(=O)Nc3cc(Cl)ccc31)N1NN=NC1=N2 (centres undefined)
[4]
  pIC50: 4.44 to 5.54
[5]
  pIC50: 4.44 to 5.54

## O=C1c2ccccc2C(=O)c2oc(-c3cccc(Cl)c3)nc21
[24]
  pIC50: 7.52
[25]
  pIC50: 7.10

## O=C1C(=O)c2ccccc2C2=C1C1(C(=O)Nc3c(Cl)cccc31)N1NN=NC1=N2 (centres undefined)
[4]
  pIC50: 4.44 to 5.54
[5]
  pIC50: 4.44 to 5.54

## CCC(C)OP(=O)(N/N=C1\C(=O)C2=C(OC(C)(C)CC2)c2ccccc21)OC(C)CC (centres undefined)
[26]
  pIC50: 4.72

## CC1(C)OC2=C(C(=O)C(=O)c3ccccc32)C1CO (centres undefined)
[27]
  pIC50: 6.34

## CC1(C)OC2=C(C(=O)C(=O)c3ccccc32)C1n1cc(-c2ccc(Nc3ccccn3)c3nsnc23)nn1 (centres undefined)
[28]
  pIC50: 6.23
[29]
  pIC50: 6.13
[30]
  pIC50: 6.23
[31]
  pIC50: 6.26
[32]
  pIC50: 6.24
[33]
  pIC50: 6.15

## O=C1C(=O)c2ccccc2C2=C1C1(C(=O)Nc3ccc(Cl)cc31)N1NN=NC1=N2 (centres undefined)
[4]
  pIC50: 4.44 to 5.54
[5]
  pIC50: 4.44 to 5.54

## O=C1C(=O)c2c(O)cccc2C2=C1CCC(c1ccccc1)O2 (centres undefined)
[34]
  pIC50: 5.89
[29]
  pIC50: 5.89
[30]
  pIC50: 5.89
[35]
  pIC50: 5.89

## CCCCCCCCC1CC2=C(O1)c1ccccc1C(=O)C2=O (centres undefined)
[1]
  selectivity ratio: 106
[2]
  pIC50: 4.68

## CC1(C)Oc2c(c3nc4c5cccnc5c5ncccc5c4nc3c3ccccc23)CC1I (centres undefined)
[3]
  pIC50: 5.31

## Cc1ccc(Sc2cccc3c2C(=O)C=CC3=O)cc1
[36]
  pIC50: 5.60

## O=C1C(=O)c2ccccc2C2=C1C1(C(=O)N(c3ccccc3)c3ccccc31)N1NN=NC1=N2 (centres undefined)
[4]
  pIC50: 4.44 to 5.54
[5]
  pIC50: 4.44 to 5.54

## CC1(C)O[C@H]2O[C@H](COC3C4=C(OC3(C)C)c3ccccc3C(=O)C4=O)[C@@H](OCc3ccccc3)[C@H]2O1 (some centres undefined)
[37]
  pIC50: 6.80
[38]
  pIC50: 6.05
[39]
  pIC50: 6.29
[40]
  pIC50: 6.47

## CC1(C)CCc2c(c3ccccc3c3nc4cc(Nc5ccccc5)/c(=N/c5ccccc5)cc-4n(-c4ccccc4)c23)O1
[41]
  Ratio IC50: 61.3

## O=C(Cn1ccnc1[N+](=O)[O-])NCc1ccccc1 [BENZNIDAZOLE]
[1]
  selectivity ratio: 16.8
[2]
  pIC50: 4.70
[3]
  pIC50: 5.48
[42]
  pIC50: 5.01

## COc1cccc2c1C(=O)c1c(O)c3c(c(O)c1C2=O)C[C@@](O)(C(=O)CO)C[C@@H]3O[C@H]1C[C@H](N)[C@H](O)[C@H](C)O1 [DOXORUBICIN]
[28]
  pIC50: 6.08
[29]
  pIC50: 6.06 to 7.52
[27]
  pIC50: 6.44
[30]
  pIC50: 6.06 to 7.52
[31]
  pIC50: 6.11
[32]
  pIC50: 6.12
[35]
  pIC50: 7.52
[33]
  pIC50: 6.05

## CC1(C)CCC2=C(O1)c1ccccc1C(=O)C2=O [LAPACHONE]
[43]
  MIC: 100 µg/mL (≈ 413 µM)

Reference: ChEMBL document CHEMBL4406812, “Synthesis of quinones with highlighted biological applications: A critical update on the strategies towards bioactive compounds with emphasis on lapachones” (Eur J Med Chem, 2019)
